In US20070219214A1, “Dual NK2/NK3-antagonists, pharmaceutical compositions comprising them, and processes for their preparation” (Solvay pharmaceuticals GmbH, priority 2006, published 2007):

What was measured:
human NK3 receptor = molecular target: T1, human NK3 receptor (Homo sapiens, UniProt P29371); assay: Binding potency of the test substances to NK3-receptors in vitro ([3H]-SR 142801 displacement); design: expressed in transfected cells; host or cells: CHO cells (membrane preparation); details: human NK3-receptor in CHO cell membranes, [3H]-SR 142801 (osanetant), average of at least three measurements; for Ki: read-out: pKi, binding potency to NK3-receptors (converted)
T1 sequence (P29371 1-465): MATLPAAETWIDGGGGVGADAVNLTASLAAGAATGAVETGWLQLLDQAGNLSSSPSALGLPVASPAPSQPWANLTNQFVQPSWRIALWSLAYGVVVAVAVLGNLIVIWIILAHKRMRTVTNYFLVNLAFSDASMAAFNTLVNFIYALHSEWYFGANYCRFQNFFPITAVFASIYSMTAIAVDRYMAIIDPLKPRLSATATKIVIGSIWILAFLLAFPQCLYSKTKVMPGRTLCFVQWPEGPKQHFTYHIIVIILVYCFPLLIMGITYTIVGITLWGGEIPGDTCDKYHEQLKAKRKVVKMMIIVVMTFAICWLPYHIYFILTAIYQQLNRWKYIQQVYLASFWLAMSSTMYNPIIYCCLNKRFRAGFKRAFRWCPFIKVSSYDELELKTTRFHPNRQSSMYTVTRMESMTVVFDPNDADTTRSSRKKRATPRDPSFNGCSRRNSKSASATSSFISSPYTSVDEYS
Description: 3. Determination of the Binding Potency of the Test Substances to NK3-Receptors in Vitro
The affinity of test compounds for NK3-receptors can be determined by measuring the ability of the test compound to displace a radiolabeled ligand from its specific binding site.
(§1) The radiolabel used in this assay is [^3H]-SR 142801 (osanetant). Receptors were obtained from membrane preparations of CHO-cells (Chinese Hamster Ovary cells), in which the human NK3-receptor was stably expressed. Membranes were incubated with [^3H]-osanetant in the absence or presence of test compounds at different concentrations, diluted in a buffer system. Separation of bound radioactivity from free radioactivity was done by filtration through glass fiber filters (Packard GF/B) with several washings with ice-cold buffer solution. Bound radioactivity was measured with a liquid scintillation counter (total binding). Unspecific binding was determined by incubation with an excess (1 μmol/l) of unlabeled osanetant. Specific binding is obtained by subtracting the unspecific binding from the total binding.
(§2) Radioactivity of the specific binding was plotted against the concentration of the test compound and IC50 values, i.e. the concentration of test compound by which 50% of the radioligand is displaced, were calculated. The inhibition constant (Ki) was calculated according to the Cheng-Prusoff equation, and listed as its negative logarithmic value (pKi) The pKi value describes the potency of a test compound to bind to a receptor.
(§3) The average result of all measurements is listed above.

human NK2-receptor = molecular target: T2, human NK2-receptor (Homo sapiens, UniProt P21452); assay: Binding potency of the test substances to NK2-receptors in vitro ([3H]-SR 48968 displacement); design: expressed in transfected cells; host or cells: CHO cells (membrane preparation); details: human NK2-receptor in CHO cell membranes, [3H]-SR 48968 (saredutant); average of at least three measurements; read-out: pKi, binding potency to NK2-receptors (converted)
T2 sequence (P21452 1-398): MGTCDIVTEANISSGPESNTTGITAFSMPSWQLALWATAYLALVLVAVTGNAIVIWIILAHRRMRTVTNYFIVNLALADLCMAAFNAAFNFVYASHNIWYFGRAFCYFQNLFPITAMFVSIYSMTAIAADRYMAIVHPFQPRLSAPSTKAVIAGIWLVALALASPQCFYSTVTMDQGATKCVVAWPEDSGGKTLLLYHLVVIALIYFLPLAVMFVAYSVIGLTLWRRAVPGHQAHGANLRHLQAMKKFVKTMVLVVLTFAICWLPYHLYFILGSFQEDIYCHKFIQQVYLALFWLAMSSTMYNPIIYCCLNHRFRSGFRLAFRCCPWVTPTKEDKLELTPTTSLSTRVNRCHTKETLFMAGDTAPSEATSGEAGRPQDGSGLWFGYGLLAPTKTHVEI
Description: 2. Determination of the Binding Potency of the Test Substances to NK2-Receptors in Vitro
The affinity of test compounds for NK2-receptors can be determined by measuring the ability of the test compound to displace a radiolabeled ligand from its specific binding site.
as §1, with “48968 (saredutant).” for “142801 (osanetant).”, “NK2-receptor” for “NK3-receptor”, “[^3H]-saredutant” for “[^3H]-osanetant”, “(0.1” for “(1”, “saredutant.” for “osanetant.”
as §2, with “(pKi).” for “(pKi)”
as §3

| Ki (human NK3 receptor) [nM] | Ki (human NK2-receptor) [nM] | pKi, binding potency to NK3-receptors (human NK3 receptor) | SMILES |
| --- | --- | --- | --- |
| 6.31 | – | – | CN(C)C(=O)C1(N2CCCCC2)CCN(CCC(CN(C)C(=O)c2ccc(NC(=O)OC(C)(C)C)cc2)c2ccc(Cl)c(Cl)c2)CC1 (stereo not drawn) [compound 54] |
| 25.1 | 3.98 | – | CN(C)C(=O)C1(N2CCCCC2)CCN(CCC(CN(C)C(=O)c2c(F)cccc2F)c2ccc(Cl)c(Cl)c2)CC1 (stereo not drawn) [compound 74] |
| 39.8 | 5.01 | – | CN(C)C(=O)C1(N2CCCCC2)CCN(CCC(CN(C)C(=O)c2ccc(Cl)cc2Cl)c2ccc(Cl)c(Cl)c2)CC1 (stereo not drawn) [compound 75] |
| 15.8 | 1 | – | CN(C[C@@H](CCN1CCC(C(=O)N2CCCC2)(N2CCCCC2)CC1)c1ccc(Cl)c(Cl)c1)C(=O)c1ccccc1 [compound 124, N-{(2S)-2-(3,4-dichlorophenyl)-4-[4′-(pyrrolidin-1-ylcarbonyl)-1,4′-bipiperidin-1′-yl]butyl}-N-methylbenzamide] |
| 63.1 | 12.6 | – | CN(C)C(=O)C1(N2CCCCC2)CCN(CCC(CN(C)C(=O)c2ccc(C(F)(F)F)cc2)c2ccc(Cl)c(Cl)c2)CC1 (stereo not drawn) [compound 86] |
| 7.94 | 10 | – | CN(C)C(=O)C1(N2CCCCC2)CCN(CCC(CN(C)C(=O)Cc2ccccn2)c2ccc(Cl)c(Cl)c2)CC1 (stereo not drawn) [compound 49] |
| – | ≤ 10 | – | CCN(C)C(=O)C1(N2CCCCC2)CCN(CC[C@H](CN(C)C(=O)c2ccccc2)c2ccc(Cl)c(Cl)c2)CC1 [compound 95, 1′-[(3S)-4-[benzoyl(methyl)amino]-3-(3,4-dichlorophenyl)butyl]-N-ethyl-N-methyl-1,4′-bipiperidine-4′-carboxamide] |
| 79.4 | 12.6 | – | CN(C)C(=O)C1(N2CCCCC2)CCN(CCC(CN(C)C(=O)c2cc[nH]c2)c2ccc(Cl)c(Cl)c2)CC1 (stereo not drawn) [compound 64] |
| 79.4 | 12.6 | – | CN(C)C(=O)C1(N2CCCCC2)CCN(CCC(CN(C)C(=O)c2ccc(Cl)c(Cl)c2)c2ccc(Cl)c(Cl)c2)CC1 (stereo not drawn) [compound 81] |
| 31.6 | 6.31 | – | CN(C)C(=O)C1(N2CCCCC2)CCN(CCC(CN(C)C(=O)c2ccc(S(N)(=O)=O)cc2)c2ccc(Cl)c(Cl)c2)CC1 (stereo not drawn) [compound 46] |
| 39.8 | 12.6 | – | CN(C)C(=O)C1(N2CCCCC2)CCN(CCC(CN(C)C(=O)c2ccc(Cl)cc2)c2ccc(Cl)c(Cl)c2)CC1 (stereo not drawn) [compound 84] |
| – | 3.16 | – | CN(C)C(=O)C1CCCCN1C1CCN(CC[C@H](CN(C)C(=O)c2ccccc2)c2ccc(Cl)c(Cl)c2)CC1 (stereo partly drawn) [compound 100] |
| 79.4 | 3.16 | – | CN(C)C(=O)C1(N2CCCCC2)CCN(CCC(CN(C)C(=O)c2ccccc2C(F)(F)F)c2ccc(Cl)c(Cl)c2)CC1 (stereo not drawn) [compound 77] |
| 50.1 | 12.6 | – | COc1ccc(C(=O)N(C)CC(CCN2CCC(C(=O)N(C)C)(N3CCCCC3)CC2)c2ccc(Cl)c(Cl)c2)cc1 (stereo not drawn) [compound 85] |
| 20 | – | – | COc1ccc(-c2ocnc2C(=O)N(C)CC(CCN2CCC(C(=O)N(C)C)(N3CCCCC3)CC2)c2ccc(Cl)c(Cl)c2)cc1 (stereo not drawn) [compound 66] |
| 15.8 | 12.6 | – | CN(C)C(=O)C1(N2CCCCC2)CCN(CCC(CN(C)C(=O)Cc2ccccc2)c2ccc(Cl)c(Cl)c2)CC1 (stereo not drawn) [compound 89] |
| 20 | 3.98 | – | CN(C)C(=O)C1(N2CCCCC2)CCN(CCC(CN(C)C(=O)c2ccc3c(c2)OC(F)(F)O3)c2ccc(Cl)c(Cl)c2)CC1 (stereo not drawn) [compound 63] |
| – | – | 7.2 | CN(C)C(=O)C1(N2CCCCC2)CCN(CC[C@H](CN(C)C(=O)C(Cc2ccc(-c3ccccc3)cc2)NC(=O)C(C)(C)C)c2ccc(Cl)c(Cl)c2)CC1 (stereo partly drawn) [compound 60] |
| – | ≤ 10 | – | CN(C)C(=O)C1CCCCN1C1CCN(CC[C@H](CN(C)C(=O)c2ccccc2)c2ccc(Cl)c(Cl)c2)CC1 (stereo partly drawn) [compound 100, 1′-[(3S)-4-[benzoyl(methyl)amino]-3-(3,4-dichlorophenyl)-butyl]-N,N-dimethyl-1,4′-bipiperidine-2-carboxamide] |
| 63.1 | – | – | CN(C)C(=O)C1(N2CCCCC2)CCN(CCC(CN(C)C(=O)Cc2cc(O)nc(O)n2)c2ccc(Cl)c(Cl)c2)CC1 (stereo not drawn) [compound 57] |
| – | 20 | – | CN(C)C(=O)C1(N2CCCCC2)CCN(CCC(CN(C)C(=O)c2cccc3ccccc23)c2ccc(Cl)c(Cl)c2)CC1 (stereo not drawn) [compound 92] |

Second part, the molecule before the results:

| SMILES | Ki (human NK3 receptor) [nM] | Ki (human NK2-receptor) [nM] | pKi, binding potency to NK3-receptors (human NK3 receptor) |
| --- | --- | --- | --- |
| CN(C)C(=O)C1(N2CCCCC2)CCN(CCC(CN(C)C(=O)Cc2c[nH]c3ccccc23)c2ccc(Cl)c(Cl)c2)CC1 (stereo not drawn) [compound 40] | 63.1 | 12.6 | – |
| CN(C)C(=O)C1(N2CCCCC2)CCN(CCC(CN(C)C(=O)CC(c2ccccc2)c2ccccc2)c2ccc(Cl)c(Cl)c2)CC1 (stereo not drawn) [compound 28] | – | 20 | – |
| CN(C)C(=O)C1(N2CCCCC2)CCN(CCC(CN(C)C(=O)c2ccc3ccccc3c2)c2ccc(Cl)c(Cl)c2)CC1 (stereo not drawn) [compound 32] | 39.8 | 15.8 | – |
| CN(C)C(=O)C1(N2CCCCC2)CCN(CCC(CN(C)C(=O)c2ccccc2C(=O)O)c2ccc(Cl)c(Cl)c2)CC1 (stereo not drawn) [compound 25] | 63.1 | 5.01 | – |
| CN(C)C(=O)C1(N2CCCCC2)CCN(CCC(CN(C)C(=O)c2c(-c3ccccc3)oc3ccccc3c2=O)c2ccc(Cl)c(Cl)c2)CC1 (stereo not drawn) [compound 21] | 63.1 | 12.6 | – |
| CN(C)C(=O)C1(N2CCCCC2)CCN(CCC(CN(C)C(=O)c2ccncc2)c2ccc(Cl)c(Cl)c2)CC1 (stereo not drawn) [compound 44] | 31.6 | 5.01 | – |
| CN(C)C(=O)C1(N2CCCCC2)CCN(CCC(CN(C)C(=O)c2ccco2)c2ccc(Cl)c(Cl)c2)CC1 (stereo not drawn) [compound 31] | 39.8 | 3.98 | – |
| CN(C)C(=O)C1(N2CCCCC2)CCN(CCC(CN(C)C(=O)Cc2ccc(-c3ccccc3)cc2)c2ccc(Cl)c(Cl)c2)CC1 (stereo not drawn) [compound 33] | 31.6 | 79.4 | – |
| CN(C)C(=O)C1(N2CCCCC2)CCN(CCC(CN(C)C(=O)C2CC2)c2ccc(Cl)c(Cl)c2)CC1 (stereo not drawn) [compound 22] | 50.1 | 15.8 | – |
| CN(C)C(=O)C1(N2CCCCC2)CCN(CCC(CN(C)C(=O)c2cc3ccccc3[nH]2)c2ccc(Cl)c(Cl)c2)CC1 (stereo not drawn) [compound 39] | 31.6 | 20 | – |
| CN(C)C(=O)C1(N2CCCCC2)CCN(CCC(CN(C)C(=O)c2cnccn2)c2ccc(Cl)c(Cl)c2)CC1 (stereo not drawn) [compound 42] | – | 15.8 | – |
| CN(C)C(=O)C1(N2CCCCC2)CCN(CCC(CN(C)C(=O)c2ccc[nH]2)c2ccc(Cl)c(Cl)c2)CC1 (stereo not drawn) [compound 35] | – | 3.16 | – |
| CN(C)C(=O)C1(N2CCCCC2)CCN(CCC(CN(C)C(=O)c2ccc(-c3ccccc3)cc2)c2ccc(Cl)c(Cl)c2)CC1 (stereo not drawn) [compound 27] | – | 15.8 | – |
| CSc1ncc(C(=O)N(C)CC(CCN2CCC(C(=O)N(C)C)(N3CCCCC3)CC2)c2ccc(Cl)c(Cl)c2)n1Cc1ccccc1 (stereo not drawn) [compound 20] | – | 25.1 | – |
